Read-outs that look alike come from different tables or passages of the source.
Experiments:
Type in all cases: biochemical
KAT8 Full length enzyme = KAT8 Full length enzyme (Homo sapiens (Human), UniProt Q9H7Z6); test: KAT8 assay (SAMDI-MS acetylation of H3 1-21 peptide); settings: replicate number in parentheses
KAT6A Full length enzyme = KAT6A Full length enzyme (Homo sapiens (Human), UniProt Q92794); test: KAT6A assay (SAMDI-MS acetylation of H3 1-21 peptide); settings: replicate number in parentheses
Sequence of KAT6A Full length enzyme (Q92794 other isoform, or with tags, fused parts or gaps): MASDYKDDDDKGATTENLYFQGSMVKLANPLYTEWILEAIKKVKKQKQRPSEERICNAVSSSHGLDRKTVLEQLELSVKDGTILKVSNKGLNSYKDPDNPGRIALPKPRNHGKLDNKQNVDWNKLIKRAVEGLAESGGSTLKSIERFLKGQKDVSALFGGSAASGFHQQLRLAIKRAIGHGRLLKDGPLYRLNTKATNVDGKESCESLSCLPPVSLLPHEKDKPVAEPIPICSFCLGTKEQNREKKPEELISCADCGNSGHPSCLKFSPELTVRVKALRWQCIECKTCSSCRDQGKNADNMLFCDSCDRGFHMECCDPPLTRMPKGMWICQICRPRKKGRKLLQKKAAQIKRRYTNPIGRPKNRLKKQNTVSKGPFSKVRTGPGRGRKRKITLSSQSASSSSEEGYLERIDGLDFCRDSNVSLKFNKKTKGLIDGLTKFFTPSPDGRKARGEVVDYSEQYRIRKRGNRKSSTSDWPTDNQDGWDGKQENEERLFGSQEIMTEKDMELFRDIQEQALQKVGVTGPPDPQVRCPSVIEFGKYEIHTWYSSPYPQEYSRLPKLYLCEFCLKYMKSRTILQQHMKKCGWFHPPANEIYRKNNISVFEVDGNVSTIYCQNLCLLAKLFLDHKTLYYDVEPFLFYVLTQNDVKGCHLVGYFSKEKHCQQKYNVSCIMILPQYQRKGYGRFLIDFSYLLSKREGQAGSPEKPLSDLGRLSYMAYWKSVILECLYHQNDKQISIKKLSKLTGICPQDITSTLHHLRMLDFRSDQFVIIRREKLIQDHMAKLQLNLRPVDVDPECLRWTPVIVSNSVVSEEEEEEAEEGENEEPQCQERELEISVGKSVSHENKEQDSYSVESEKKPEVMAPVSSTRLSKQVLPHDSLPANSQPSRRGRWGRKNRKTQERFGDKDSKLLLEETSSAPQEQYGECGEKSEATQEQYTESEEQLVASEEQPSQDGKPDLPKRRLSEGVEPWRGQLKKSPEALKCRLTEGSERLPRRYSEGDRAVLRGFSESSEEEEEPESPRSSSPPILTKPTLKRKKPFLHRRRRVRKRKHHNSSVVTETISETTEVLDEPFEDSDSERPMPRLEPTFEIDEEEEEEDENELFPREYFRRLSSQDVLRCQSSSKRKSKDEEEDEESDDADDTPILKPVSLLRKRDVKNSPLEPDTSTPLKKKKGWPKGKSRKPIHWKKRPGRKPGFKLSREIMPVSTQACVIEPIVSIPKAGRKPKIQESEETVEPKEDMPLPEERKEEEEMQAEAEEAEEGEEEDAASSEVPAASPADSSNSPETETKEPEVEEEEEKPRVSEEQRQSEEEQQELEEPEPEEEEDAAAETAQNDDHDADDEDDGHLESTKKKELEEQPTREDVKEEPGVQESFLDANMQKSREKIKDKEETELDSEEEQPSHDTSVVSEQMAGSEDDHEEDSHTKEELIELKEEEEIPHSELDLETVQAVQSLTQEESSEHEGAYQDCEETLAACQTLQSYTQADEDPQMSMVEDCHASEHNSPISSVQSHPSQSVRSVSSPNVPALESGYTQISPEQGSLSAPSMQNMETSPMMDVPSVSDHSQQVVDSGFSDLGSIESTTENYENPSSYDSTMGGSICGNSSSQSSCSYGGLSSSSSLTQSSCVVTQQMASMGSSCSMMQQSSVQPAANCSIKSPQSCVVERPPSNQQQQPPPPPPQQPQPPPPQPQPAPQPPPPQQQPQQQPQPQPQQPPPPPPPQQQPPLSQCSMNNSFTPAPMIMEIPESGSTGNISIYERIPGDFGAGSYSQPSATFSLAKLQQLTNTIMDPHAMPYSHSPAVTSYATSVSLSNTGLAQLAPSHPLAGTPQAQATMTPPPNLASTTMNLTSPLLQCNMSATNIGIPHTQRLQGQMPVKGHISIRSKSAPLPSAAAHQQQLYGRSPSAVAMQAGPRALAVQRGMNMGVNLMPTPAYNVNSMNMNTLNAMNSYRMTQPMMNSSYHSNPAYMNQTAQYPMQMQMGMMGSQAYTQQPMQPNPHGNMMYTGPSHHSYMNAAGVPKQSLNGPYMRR

[1] = biological target: KAT7+JADE1+EAF6+ING5 4 protein complex (Homo sapiens (Human), UniProt O95251); test: KAT7 JADE1 assay (SAMDI-MS acetylation of H3 1-21 peptide); settings: replicate number in parentheses
KAT5 Full length enzyme = KAT5 Full length enzyme (Homo sapiens (Human), UniProt Q92993); test: KAT5 assay (SAMDI-MS acetylation of H4 1-21 peptide); settings: Morrison equation fit; replicate number in parentheses; read-out: KAT5 Ki (nM) (replicate number)
Sequence of KAT5 Full length enzyme (Q92993 whole entry): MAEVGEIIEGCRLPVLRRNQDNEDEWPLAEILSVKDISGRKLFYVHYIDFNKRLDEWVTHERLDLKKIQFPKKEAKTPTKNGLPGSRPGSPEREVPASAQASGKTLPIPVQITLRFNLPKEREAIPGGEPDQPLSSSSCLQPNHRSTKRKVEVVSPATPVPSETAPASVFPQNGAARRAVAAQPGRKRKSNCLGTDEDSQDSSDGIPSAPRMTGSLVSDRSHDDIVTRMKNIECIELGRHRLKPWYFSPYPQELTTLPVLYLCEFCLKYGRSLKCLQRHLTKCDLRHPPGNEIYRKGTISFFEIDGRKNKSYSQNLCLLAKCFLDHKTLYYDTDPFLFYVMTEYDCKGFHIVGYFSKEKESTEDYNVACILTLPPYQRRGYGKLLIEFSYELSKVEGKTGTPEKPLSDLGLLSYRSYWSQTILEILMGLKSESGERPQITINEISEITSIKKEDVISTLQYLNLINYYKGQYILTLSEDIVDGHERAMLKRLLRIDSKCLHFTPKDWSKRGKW

[2] = Morrison equation fit, read-out: KAT8 Ki (nM) (replicate number)
[3] = Morrison equation fit, read-out: KAT6A Ki (nM) (replicate number)
[4] = Morrison equation fit, read-out: KAT7 JADE1 Ki (nM) (replicate number)
[5] = read-out: KAT8 Ki (nM) (replicate)
[6] = read-out: KAT6A Ki (nM) (replicate)
[7] = read-out: KAT7 JADE1 Ki (nM) (replicate)

Sequence of KAT8 Full length enzyme (Q9H7Z6 whole entry): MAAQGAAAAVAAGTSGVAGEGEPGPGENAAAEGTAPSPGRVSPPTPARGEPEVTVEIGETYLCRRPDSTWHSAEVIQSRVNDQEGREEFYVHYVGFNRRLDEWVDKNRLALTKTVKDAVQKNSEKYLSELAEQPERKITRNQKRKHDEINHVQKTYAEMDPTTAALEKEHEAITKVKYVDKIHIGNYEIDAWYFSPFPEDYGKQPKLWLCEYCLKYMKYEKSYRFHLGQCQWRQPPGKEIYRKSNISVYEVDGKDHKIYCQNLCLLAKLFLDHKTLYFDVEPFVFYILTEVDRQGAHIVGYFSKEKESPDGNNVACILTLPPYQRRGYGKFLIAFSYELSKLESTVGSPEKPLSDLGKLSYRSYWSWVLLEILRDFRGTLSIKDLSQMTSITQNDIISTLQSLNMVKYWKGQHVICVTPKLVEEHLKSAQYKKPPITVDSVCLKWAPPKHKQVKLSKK

Row | SMILES | Ki (KAT8 Full length enzyme; [2]) [nM] | Ki (KAT6A Full length enzyme; [3]) [nM] | Ki [1, 4] [nM] | Ki (KAT5 Full length enzyme) [nM] | Ki (KAT8 Full length enzyme; [5]) [nM] | Ki (KAT6A Full length enzyme; [6]) [nM] | Ki [1, 7] [nM]
1 | COc1cc2c(NS(=O)(=O)c3c(OC)cccc3OC)noc2cc1Nc1cc([C@H]2CC2(F)F)[nH]n1 (single isomer, unassigned) [Example 68, N-(6-{[5-(2,2-difluorocyclopropyl)-1H-pyrazol-3-yl]amino}-5-methoxy-1,2-benzoxazol-3-yl)-2,6-dimethoxybenzene-1-sulfonamide] | 4130 | 1.2 | 16.8 | 39.3 |  |  | 
2 | COc1cc2c(NS(=O)(=O)c3c(OC)cccc3OC)noc2cc1Nc1cc([C@@H]2CC2(F)F)[nH]n1 (single isomer, unassigned) [Example 69, N-(6-{[5-(2,2-difluorocyclopropyl)-1H-pyrazol-3-yl]amino}-5-methoxy-1,2-benzoxazol-3-yl)-2,6-dimethoxybenzene-1-sulfonamide] | > 13000 | > 3290 | > 29000 | > 50000 |  |  | 
3 | COc1cc2c(NS(=O)(=O)c3cc4c(cc3OC)CCCC4)noc2cc1Nc1cc[nH]n1 [Example 05, 3-Methoxy-N-{5-methoxy-6-[(1H-pyrazol-3-yl)amino]-1,2-benzoxazol-3-yl}-5,6,7,8-tetrahydronaphthalene-2-sulfonamide] | 290 | 0.5 |  | 13.6 |  |  | 
4 | COc1cc2c(NS(=O)(=O)c3cc(C)c(C)cc3OC)noc2cc1Nc1cc[nH]n1 [Example 25, 2-methoxy-N-{5-methoxy-6-[(1H-pyrazol-3-yl)amino]-1,2-benzoxazol-3-yl}-4,5-dimethylbenzene-1-sulfonamide] | 446 | 0.8 |  | 121 |  |  | 
5 | COc1cc2c(NS(=O)(=O)c3c(OC)cc(CN(C)C)cc3OC)noc2cc1Nc1cc(C2CC2)n[nH]1 [Example 144, N-{6-[(3-cyclopropyl-1 H-pyrazol-5-yl)amino]-5-methoxy-1,2-benzoxazol-3-yl}-4-[(dimethylamino)methyl]-2,6-dimethoxybenzene-1-sulfonamide] | 2780 | 1.8 | 10.2 |  |  |  | 
6 | COc1cc2c(NS(=O)(=O)c3c(OC)cc([C@@H]4COCCO4)cc3OC)noc2cc1Nc1cc(C2CC2)n[nH]1 [Example 145] | 1510 | 1.8 | 9.2 |  |  |  | 
7 | COc1cc2c(NS(=O)(=O)c3c(OC)cc(-c4nccc(C)n4)cc3OC)noc2cc1Nc1cc(C2CC2)n[nH]1 [Example 214, N-{6-[(3-cyclopropyl-1H-pyrazol-5-yl)amino]-5-methoxy-1,2-benzoxazol-3-yl}-2,6-dimethoxy-4-(4-methylpyrimidin-2-yl)benzene-1-sulfonamide] | 1720 | 0.7 | 4.3 |  |  |  | 
8 | COc1cc2c(NS(=O)(=O)c3c(OC)cc(-c4ccc(C)cn4)cc3OC)noc2cc1Nc1cc(C2CC2)n[nH]1 [Example 215, N-{6-[(3-cyclopropyl-1H-pyrazol-5-yl)amino]-5-methoxy-1,2-benzoxazol-3-yl}-2,6-dimethoxy-4-(5-methylpyridin-2-yl)benzene-1-sulfonamide] | 994 | 0.4 | 4.2 |  |  |  | 
9 | COc1cc2c(NS(=O)(=O)c3c(OC)cc(-c4cccn(C)c4=O)cc3OC)noc2cc1Nc1cc(C2CC2)n[nH]1 [Example 221, N-{6-[(3-cyclopropyl-1H-pyrazol-5-yl)amino]-5-methoxy-1,2-benzoxazol-3-yl}-2,6-dimethoxy-4-(1-methyl-2-oxo-1,2-dihydropyridin-3-yl)benzene-1-sulfonamide] | 1490 | 0.7 | 6.2 |  |  |  | 
10 | CCc1cc(Nc2cc3onc(NS(=O)(=O)c4c(OC)cc(-c5cccc(C)n5)cc4OC)c3cc2OC)[nH]n1 [Example 231, N-{6-[(3-ethyl-1H-pyrazol-5-yl)amino]-5-methoxy-1,2-benzoxazol-3-yl}-2,6-dimethoxy-4-(6-methylpyridin-2-yl)benzene-1-sulfonamide] | 859 | 1.1 | 8.8 |  |  |  | 
11 | CCc1cc(Nc2cc3onc(NS(=O)(=O)c4c(OC)cc(-c5cnc(C)cn5)cc4OC)c3cc2OC)[nH]n1 [Example 232, N-{6-[(3-ethyl-1H-pyrazol-5-yl)amino]-5-methoxy-1,2-benzoxazol-3-yl}-2,6-dimethoxy-4-(5-methylpyrazin-2-yl)benzene-1-sulfonamide] | 2620 | 0.6 | 6.4 |  |  |  | 
12 | CCc1cc(Nc2cc3onc(NS(=O)(=O)c4c(OC)cc(-c5nccc(C)n5)cc4OC)c3cc2OC)[nH]n1 [Example 233, N-{6-[(3-ethyl-1H-pyrazol-5-yl)amino]-5-methoxy-1,2-benzoxazol-3-yl}-2,6-dimethoxy-4-(4-methylpyrimidin-2-yl)benzene-1-sulfonamide] | 2000 | 1.7 | 8.9 |  |  |  | 
13 | CCc1cc(Nc2cc3onc(NS(=O)(=O)c4c(OC)cc(-c5ncc(C)cn5)cc4OC)c3cc2OC)[nH]n1 [Example 234, N-{6-[(3-ethyl-1H-pyrazol-5-yl)amino]-5-methoxy-1,2-benzoxazol-3-yl}-2,6-dimethoxy-4-(5-methylpyrimidin-2-yl)benzene-1-sulfonamide] | 1680 | 1 | 8.5 |  |  |  | 
14 | CCc1cc(Nc2cc3onc(NS(=O)(=O)c4c(OC)cc(-c5ccc(C)nn5)cc4OC)c3cc2OC)[nH]n1 [Example 235, N-{6-[(3-ethyl-1H-pyrazol-5-yl)amino]-5-methoxy-1,2-benzoxazol-3-yl}-2,6-dimethoxy-4-(6-methylpyridazin-3-yl)benzene-1-sulfonamide] | 2360 | 0.8 | 6 |  |  |  | 
15 | CCc1cc(Nc2cc3onc(NS(=O)(=O)c4c(OC)cc(-c5ccc(C)cn5)cc4OC)c3cc2OC)[nH]n1 [Example 236, N-{6-[(3-ethyl-1H-pyrazol-5-yl)amino]-5-methoxy-1,2-benzoxazol-3-yl}-2,6-dimethoxy-4-(5-methylpyridin-2-yl)benzene-1-sulfonamide] | 364 | 0.4 | 3.5 |  |  |  | 
16 | COc1cc2c(NS(=O)(=O)c3c(OC)cc(N4CCCC4=O)cc3OC)noc2cc1Nc1cc(C2CC2)n[nH]1 [Example 246, N-{6-[(3-cyclopropyl-1H-pyrazol-5-yl)amino]-5-methoxy-1,2-benzoxazol-3-yl}-2,6-dimethoxy-4-(2-oxopyrrolidin-1-yl)benzene-1-sulfonamide] |  |  |  |  | 1840 | 1 | 6.4
17 | COc1cc2c(NS(=O)(=O)c3c(OC)cc(C4CCOCC4)cc3OC)noc2cc1Nc1cc(C2CC2)n[nH]1 [Example 265, N-{6-[(3-cyclopropyl-1 H-pyrazol-5-yl)amino]-5-methoxy-1,2-benzoxazol-3-yl}-2,6-dimethoxy-4-(oxan-4-yl)benzene-1-sulfonamide] |  |  |  |  | 918 | 0.3 | 2.3
18 | COCc1cc(OC)c(S(=O)(=O)Nc2noc3cc(Nc4cc(C5CC5)n[nH]4)c(OC)cc23)c(OC)c1 [Example 270, N-{6-[(3-cyclopropyl-1 H-pyrazol-5-yl)amino]-5-methoxy-1,2-benzoxazol-3-yl}-2,6-dimethoxy-4-(methoxymethyl)benzene-1-sulfonamide] |  |  |  |  | 1790 | 1.3 | 13.5
19 | COc1cc2c(NS(=O)(=O)c3c(OC)cc(C(C)(C)OC)cc3OC)noc2cc1Nc1cc(C2CC2)n[nH]1 [Example 271, N-{6-[(3-cyclopropyl-1H-pyrazol-5-yl)amino]-5-methoxy-1,2-benzoxazol-3-yl}-2,6-dimethoxy-4-(2-methoxypropan-2-yl)benzene-1-sulfonamide] |  |  |  |  | 1010 | 1 | 7
